Measured values: patent US9409880B2, “Modulators of TLR3/dsRNA complex and uses thereof” (The Regents of the University of Colorado, a body corporate, priority 2011, dated 2016)

Target: T1, TLR3 (Mus musculus, UniProt Q99MB1)
T1 construct: endogenous in cells; host or cells: RAW 264.7
T1 sequence (Q99MB1 26-905): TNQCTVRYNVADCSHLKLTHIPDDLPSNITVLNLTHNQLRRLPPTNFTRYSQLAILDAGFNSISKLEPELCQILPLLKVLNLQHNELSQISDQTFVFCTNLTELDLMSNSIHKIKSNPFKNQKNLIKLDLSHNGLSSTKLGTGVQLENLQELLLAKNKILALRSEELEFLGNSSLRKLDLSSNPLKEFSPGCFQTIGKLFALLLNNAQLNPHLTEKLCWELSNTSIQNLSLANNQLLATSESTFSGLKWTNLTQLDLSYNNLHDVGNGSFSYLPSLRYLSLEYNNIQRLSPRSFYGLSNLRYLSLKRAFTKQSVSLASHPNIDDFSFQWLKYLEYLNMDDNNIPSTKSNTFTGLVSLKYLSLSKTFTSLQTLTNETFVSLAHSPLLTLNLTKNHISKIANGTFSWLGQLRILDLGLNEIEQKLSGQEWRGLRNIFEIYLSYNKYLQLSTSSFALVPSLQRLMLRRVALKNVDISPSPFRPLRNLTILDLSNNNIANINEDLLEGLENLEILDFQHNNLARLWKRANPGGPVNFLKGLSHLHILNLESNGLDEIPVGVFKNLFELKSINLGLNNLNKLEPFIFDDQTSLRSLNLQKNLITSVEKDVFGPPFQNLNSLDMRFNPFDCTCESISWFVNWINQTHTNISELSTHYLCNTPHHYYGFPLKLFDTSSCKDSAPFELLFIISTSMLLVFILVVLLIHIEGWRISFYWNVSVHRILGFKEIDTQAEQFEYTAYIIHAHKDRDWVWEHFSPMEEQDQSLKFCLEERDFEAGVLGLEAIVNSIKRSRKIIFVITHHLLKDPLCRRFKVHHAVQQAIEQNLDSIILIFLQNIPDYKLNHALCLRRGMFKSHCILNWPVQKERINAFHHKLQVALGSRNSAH
Experiment: In vitro TLR3 inhibition assay: Poly IC-induced NO production in RAW 264.7 cells
Format: cell-based
Conditions: 6a vs 4a
Source text: The initial hits (Figure A) were first evaluated using the present inventors' previously established high-throughput cell assay of TLR3 activation. See, for example, ACS Med. Chem. Lett. 2010, 1, 194 and Bioorg. Med. Chem. Lett., 2010, 20, 5411. Poly IC (Polyriboinosinic:polyribocytidylic acid) has been reported to selectively activate TLR3 signaling, resulting in the activation of nitric oxide synthase and the production nitric oxide (NO) in RAW 264.7 macrophage cells. The NO level was monitored as an indicator of Poly IC-induced TLR3 activation to evaluate the drug's inhibitory activity.
RAW 264.7 (Mouse leukaemic monocyte macrophage cell line) cells were grown in RPMI 1640 medium, supplemented with 10% FBS, penicillin (100 U/mL) and streptomycin ([…]). RAW cells were then planted in 96-well plates at 100,000 cells per well and grown for 24 h in the media descried previously at 37° C. in a 5% CO2 humidified incubator. After 24 h, non-adherent cells and media were removed and replaced with fresh RPMI 1640 medium (only RPMI). The adherent macrophages were treated with high molecular weight polyinosine-polycytidylic acid (Poly IC) (10 μg/mL) (Invivogen), an agonist of TLR3, and then added different concentrates of potential inhibitor. Two rows were only treated with Poly IC as an control. Plates were then incubated for an additional 24 h. Following incubation 100 μL of media was removed and added to flat black 96-well microfluor plates (Thermo Scientific, MA, USA). To each well, 10 μL of 2,3-diaminonaphthalene (0.05 mg/mL in 0.62 M aqueous HCl solution) was added and incubated for 15 min in the dark. The reaction was quenched by addition of 5 μL of a 3 M aqueous NaOH solution and the plate was read on Beckman Coulter DTX880 reader (Beckman Coulter, Calif., USA) with excitation at 365 nm and emission at 450 nm. The nitrite (a stable metabolite of nitric oxide) concentration was determined from a nitrite standard curve. The inhibition rate (%) of NO release was determined using the following formula: Inhibition (%)=[Poly IC(OD450)−Compounds (OD450)]/[Poly IC(OD450)−Control (OD450)]×100. The IC50 values for both inhibition and cytotoxicity were determined graphically using software Origin v7.5.

Row | decrease in potency | Compound
1 | 10 fold | COc1ccc2c(Cl)c(C(=O)N[C@H](Cc3ccccc3)C(=O)O)sc2c1 [Compound 6a, (R)-2-(3-chloro-6-methoxybenzo[b]thiophene-2-carboxamido)-3-phenylpropanoic acid]

Same assay, conditions: Poly IC-induced TLR3 activation, cell assay

Row | IC50 | Compound
2 | 154 ± 5.9 µM | O=C(N[C@H](Cc1ccccc1)C(=O)O)c1cc2c(s1)CCCCC2 [Compound T5626448, reference compound]
3 | 145 ± 3.7 µM | O=C(O)[C@@H](Cc1ccccc1)NS(=O)(=O)c1ccccc1F [Compound T5260630, reference compound]

Same assay, conditions: whole cell inhibitory activity; Poly IC-induced NO, RAW 264.7; average ± SD, at least three independent tests

Row | Compound | IC50
4 | O=C(N[C@H](Cc1ccccc1)C(=O)O)c1cc2cc(F)ccc2s1 [Compound 10a, (R)-2-(5-fluorobenzo[b]thiophene-2-carboxamido)-3-phenylpropanoic acid] | > 100 µM
5 | COc1ccc2c(Cl)c(C(=O)N[C@@H](Cc3ccccc3)C(=O)O)sc2c1 [Compound 6b, (S)-2-(3-chloro-6-methoxybenzo[b]thiophene-2-carboxamido)-3-phenylpropanoic acid] | > 100 µM
6 | O=C(N[C@@H](Cc1ccccc1)C(=O)O)c1cc2cc(F)ccc2s1 [Compound 10b, (S)-2-(5-fluorobenzo[b]thiophene-2-carboxamido)-3-phenylpropanoic acid] | > 100 µM
7 | O=C(N[C@@H](Cc1ccccc1)C(=O)O)c1sc2cc(C(F)(F)F)ccc2c1Cl [Compound 5b, (S)-2-(3-chloro-6-(trifluoromethyl)benzo[b]thiophene-2-carboxamido)-3-phenylpropanoic acid] | 19.8 ± 3.6 µM
8 | O=C(N[C@@H](Cc1ccccc1)C(=O)O)c1sc2cc(Cl)ccc2c1Cl [Compound 3b, (S)-2-(3,6-dichlorobenzo[b]thiophene-2-carboxamido)-3-phenylpropanoic acid] | 11.8 ± 2.5 µM
9 | O=C(N[C@@H](Cc1ccccc1)C(=O)O)c1cc2ccccc2s1 [Compound 1b, (S)-2-(benzo[b]thiophene-2-carboxamido)-3-phenylpropanoic acid] | > 155 µM
10 | Cc1ccc2c(Cl)c(C(=O)N[C@H](Cc3ccccc3)C(=O)O)sc2c1 [Compound 2a, (R)-2-(3-chloro-6-methylbenzo[b]thiophene-2-carboxamido)-3-phenylpropanoic acid] | 11.8 ± 1.3 µM
11 | COc1ccc2c(Cl)c(C(=O)N[C@H](Cc3ccccc3)C(=O)O)sc2c1 [Compound 6a, (R)-2-(3-chloro-6-methoxybenzo[b]thiophene-2-carboxamido)-3-phenylpropanoic acid] | 36.7 ± 3.9 µM
12 | O=C(N[C@H](Cc1ccccc1)C(=O)O)c1sc2ccccc2c1Cl [Compound 11a, (R)-2-(3-chlorobenzo[b]thiophene-2-carboxamido)-3-phenylpropanoic acid] | > 100 µM
13 | O=C(N[C@H](Cc1ccccc1)C(=O)O)c1cc2ccc(F)cc2s1 [Compound 13a, (R)-2-(6-fluorobenzo[b]thiophene-2-carboxamido)-3-phenylpropanoic acid] | > 100 µM
14 | O=C(N[C@@H](Cc1ccccc1)C(=O)O)c1sc2ccc(F)cc2c1Cl [Compound 12b, (S)-2-(3-chloro-5-fluorobenzo[b]thiophene-2-carboxamido)-3-phenylpropanoic acid] | 54.1 ± 5.7 µM
15 | O=C(N[C@@H](Cc1ccccc1)C(=O)O)c1cc2ccc(F)cc2s1 [Compound 13b, (S)-2-(6-fluorobenzo[b]thiophene-2-carboxamido)-3-phenylpropanoic acid] | > 100 µM
16 | O=C(N[C@@H](Cc1ccccc1)C(=O)O)c1sc2cc(F)c(F)cc2c1Cl [Compound 8b, (S)-2-(3-chloro-5,6-difluorobenzo[b]thiophene-2-carboxamido)-3-phenylpropanoic acid] | 79.5 ± 3.4 µM
17 | Cc1ccc2c(Cl)c(C(=O)N[C@@H](Cc3ccccc3)C(=O)O)sc2c1 [Compound 2b, (S)-2-(3-chloro-6-methylbenzo[b]thiophene-2-carboxamido)-3-phenylpropanoic acid] | 31.7 ± 0.7 µM
18 | O=C(N[C@@H](Cc1ccccc1)C(=O)O)c1sc2ccccc2c1Cl [Compound 11b, (S)-2-(3-chlorobenzo[b]thiophene-2-carboxamido)-3-phenylpropanoic acid] | > 100 µM
19 | O=C(N[C@@H](Cc1ccc(O)cc1)C(=O)O)c1cc2ccccc2s1 [Compound 9b] | > 100 µM
20 | O=C(N[C@H](Cc1ccccc1)C(=O)O)c1sc2cc(C(F)(F)F)ccc2c1Cl [Compound 5a, (R)-2-(3-chloro-6-(trifluoromethyl)benzo[b]thiophene-2-carboxamido)-3-phenylpropanoic acid] | 6.28 ± 1.05 µM
21 | O=C(N[C@@H](Cc1ccccc1)C(=O)O)c1sc2cc(F)ccc2c1Cl [Compound 4b, (S)-2-(3-chloro-6-fluorobenzo[b]thiophene-2-carboxamido)-3-phenylpropanoic acid] | 21.9 ± 0.7 µM
22 | O=C(N[C@H](Cc1ccc(O)cc1)C(=O)O)c1cc2ccccc2s1 [Compound 9a, (R)-2-(benzo[b]thiophene-2-carboxamido)-3-(4-hydroxyphenyl)propanoic acid] | > 100 µM
23 | O=C(N[C@@H](Cc1ccc(O)cc1)C(=O)O)c1sc2cc(F)ccc2c1Cl [Compound 7b, (S)-2-(3-chloro-6-fluorobenzo[b]thiophene-2-carboxamido)-3-(4-hydroxyphenyl)propanoic acid] | 84.7 ± 2.4 µM

More lines, now with the values ahead:

Row | IC50 | Compound
24 | 154 ± 6 µM | O=C(N[C@H](Cc1ccccc1)C(=O)O)c1cc2c(s1)CCCCC2 [Compound T5626448, reference compound]
25 | 145 ± 4 µM | O=C(O)[C@@H](Cc1ccccc1)NS(=O)(=O)c1ccccc1F [Compound T5260630, reference compound]

Same assay, conditions: whole cell inhibitory activity; second part of Table 1 (R5/R6 series)

Row | Compound | IC50
26 | O=C(O)[C@H](Cc1ccccc1)NS(=O)(=O)c1ccccc1F [Compound 14b, (S)-2-(2-fluorophenylsulfonamido)-3-phenylpropanoic acid] | > 100 µM
27 | O=C(O)[C@@H](Cc1ccccc1)NS(=O)(=O)c1ccccc1F [Compound 14a, (R)-2-(2-fluorophenylsulfonamido)-3-phenylpropanoic acid] | > 100 µM

The next lines start with the values.

Row | IC50 | Compound
28 | > 100 µM | O=C(O)[C@H](Cc1ccccc1)NS(=O)(=O)c1cccc(F)c1 [Compound 15b, (S)-2-(3-fluorophenylsulfonamido)-3-phenylpropanoic acid]
29 | > 100 µM | O=C(O)[C@H](Cc1ccc(O)cc1)NS(=O)(=O)c1ccccc1F [Compound 17b, (S)-2-(2-fluorophenylsulfonamido)-3-(4-hyroxyphenyl)propanoic acid]
30 | > 100 µM | O=C(O)[C@@H](Cc1ccccc1)NS(=O)(=O)c1ccc(F)cc1 [Compound 16a, (R)-2-(4-fluorophenylsulfonamido)-3-phenylpropanoic acid]
31 | > 100 µM | O=C(O)[C@H](Cc1ccc(O)cc1)NS(=O)(=O)c1cccc(F)c1 [Compound 18b, (S)-2-(3-fluorophenylsulfonamido)-3-(4-hydroxyphenyl)propanoic acid]
32 | > 100 µM | O=C(O)[C@H](Cc1ccccc1)NS(=O)(=O)c1ccc(F)cc1 [Compound 16b, (S)-2-(4-fluorophenylsulfonamido)-3-phenylpropanoic acid]
33 | > 100 µM | O=C(O)[C@@H](Cc1ccc(O)cc1)NS(=O)(=O)c1ccccc1F [Compound 17a, (R)-2-(2-fluorophenylsulfonamido)-3-(4-hydroxyphenyl)propanoic acid]
34 | > 100 µM | O=C(O)[C@@H](Cc1ccc(O)cc1)NS(=O)(=O)c1cccc(F)c1 [Compound 18a, (R)-2-(3-fluorophenylsulfonamido)-3-(4-hydroxyphenyl)propanoic acid]
35 | > 100 µM | O=C(O)[C@@H](Cc1ccc(O)cc1)NS(=O)(=O)c1ccc(F)cc1 [Compound 19a, (R)-2-(4-fluorophenylsulfonamido)-3-(4-hydroxyphenyl)propanoic acid]
